Bounds are passed on as bounds.

The assay addresses Tyrosine-protein kinase JAK2 (Homo sapiens, UniProt O60674). Description: Thirteen μL of assay buffer in blank and substrate control wells and 13 μL of Enzyme buffer mix in positive and test wells was added. The reaction mixture was incubated for 30 minutes at RT on a plate shaker. […] The reaction plate was incubated for 60 minutes at RT on a plate shaker. The reaction was stopped by adding 40 mM EDTA (10 μL) in buffer. Ten μL of antibody was added to all the wells.

Chain of Tyrosine-protein kinase JAK2 (O60674 whole entry): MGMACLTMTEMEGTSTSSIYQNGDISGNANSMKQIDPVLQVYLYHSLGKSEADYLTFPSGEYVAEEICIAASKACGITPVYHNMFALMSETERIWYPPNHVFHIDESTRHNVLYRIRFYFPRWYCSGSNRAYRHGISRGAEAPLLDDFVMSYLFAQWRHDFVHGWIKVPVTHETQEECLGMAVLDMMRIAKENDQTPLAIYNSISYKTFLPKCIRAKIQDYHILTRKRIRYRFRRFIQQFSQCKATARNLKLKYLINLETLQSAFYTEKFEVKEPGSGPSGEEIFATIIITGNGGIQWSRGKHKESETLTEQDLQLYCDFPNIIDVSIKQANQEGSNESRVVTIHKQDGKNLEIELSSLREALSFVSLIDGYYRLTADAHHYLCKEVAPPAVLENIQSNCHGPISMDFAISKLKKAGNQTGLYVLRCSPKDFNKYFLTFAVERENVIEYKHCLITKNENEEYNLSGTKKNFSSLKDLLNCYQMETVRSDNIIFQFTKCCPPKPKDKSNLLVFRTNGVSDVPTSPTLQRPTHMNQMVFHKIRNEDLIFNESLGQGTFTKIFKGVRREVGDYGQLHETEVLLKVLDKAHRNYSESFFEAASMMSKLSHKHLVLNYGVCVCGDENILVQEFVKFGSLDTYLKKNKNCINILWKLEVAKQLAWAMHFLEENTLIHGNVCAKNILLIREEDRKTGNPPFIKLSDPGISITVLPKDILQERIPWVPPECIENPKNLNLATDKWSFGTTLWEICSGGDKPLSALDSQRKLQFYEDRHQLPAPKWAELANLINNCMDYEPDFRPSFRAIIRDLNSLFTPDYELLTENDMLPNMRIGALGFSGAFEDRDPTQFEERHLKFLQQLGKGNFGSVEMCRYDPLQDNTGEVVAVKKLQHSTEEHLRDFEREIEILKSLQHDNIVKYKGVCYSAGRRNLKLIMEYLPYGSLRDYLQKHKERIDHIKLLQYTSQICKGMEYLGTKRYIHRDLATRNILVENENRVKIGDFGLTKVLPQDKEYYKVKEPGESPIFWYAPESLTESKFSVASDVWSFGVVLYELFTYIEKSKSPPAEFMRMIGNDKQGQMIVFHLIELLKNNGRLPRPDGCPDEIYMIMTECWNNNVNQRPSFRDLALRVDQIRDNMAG

In the case of `CC(C)(C#N)N1CCN(c2ccc(Nc3nc(N4CCCCCC4)nc4cn[nH]c(=O)c34)cc2)CC1`, the IC50 (commonly the point on the concentration scale where inhibition reaches its midpoint) is greater than 100 nM.

(Values after ChEMBL document CHEMBL5727699, “Pyrimido-pyridazinone compounds and methods of use thereof” (2020).)
